# “Also recorded” adds a separate entry of the source. Ends that are not written are not given here.
# Key:
# [1] = system: ERK phosphorylation in PC3-101P3A11 cells; assay: ERK phosphorylation in PC3-101P3A11 and PC3-neo cells (anti-Phospho-ERK Western blot); type: cell-based, human; settings: for inhibition of ERK phosphorylation and activation: PC3-101P3A11 and 3T3-101P3A11 cells, FBS
# Procedure: Using Western blotting and other techniques, the ability of 101P3A11 to regulate these pathways is confirmed. Cells expressing or lacking 101P3A11 are either left untreated or stimulated with cytokines, androgen and anti-integrin antibodies. Cell lysates were analyzed using anti-phospho-specific antibodies (Cell Signaling, Santa Cruz Biotechnology) in order to detect phosphorylation and regulation of ERK, p38, AKT, PI3K, PLC and other signaling molecules. […] In the experiment, data shown in FIG. 26, control 3T3-neo and 3T3-101P3A11 cells were either treated with 0.5 or 10% FBS and whole cell lysates were analyzed by anti-phosphotyrosine Western blotting.
# In this experiment, control PC3-neo cells and PC3-101P3A11 cells were left untreated (0.1% FBS) or were stimulated with 10% FBS, lipophosphatidic acid (LPA), gastrin releasing peptide (GRP), leukotriene (LKB4) or platelet activating factor (PAF). The cells were lysed and analyzed by Western blotting using anti-Phospho-ERK (FIG. 27A) or anti-ERK (FIG. 27B) mAb. […] In order to delineate the signaling pathway by which 101P3A11 mediates ERK phosphorylation in cancer cells, it was confirmed which of the two pathway inhibitors: MEK inhibitor PD98059 or the p38 inhibitor SB203580 regulate 101P3A11 mediated ERK phosphorylation (FIG. 28). […] Cells were lysed and analyzed by Western blotting using anti-Phospho-ERK or anti-ERK mAb. Treatment with 10% FBS or with GRP induced the phosphorylation of ERK in PC3-101P3A11 but not in control PC3-neo cells. 101P3A11-mediated ERK phosphorylation was inhibited by the MEK-1 inhibitor PD98059 but not the p38 inhibitor SB203580 or genistein.
# Results in FIGS. 26-28 indicate that 101P3A11 regulates the activity of kinases, including ERK, and phosphatases. In order to confirm the association of 101P3A11 with phosphatase activity, the effect of the protein phosphatase inhibitor sodium orthovanadate on 101P3A11 mediated ERK phosphorylation was determined (FIG. 29). PC3-neo and PC3-101P3A11 cells were grown in media alone or in the presence of sodium orthovanadate (Na3VO4), and were stimulated with 0.1% or 10% FBS. Cells were lysed and analyzed by Western blotting using anti-Phospho-ERK or anti-ERK mAb. […] Results in FIG. 29 confirm the contribution of protein phosphatases to 101P3A11 mediated signaling.
# In order to determine whether 101P3A11 signaling results in the activation of EGFR, we compared the effect of the EGFR inhibitor, AG1517, on EGFR- and 101P3A11-mediated ERK phosphorylation (FIG. 30). In FIG. 30, PC3-neo and PC3-101P3A11 cells were grown in media alone (0.1% FBS) or in the presence of AG1517. The cells were stimulated with 0.1% or 10% FBS, GRP or EGF, lysed and analyzed by Western blotting using anti-Phospho-ERK or anti-ERK mAb. Treatment with 10% FBS, GRP and EGF induced ERK phosphorylation in PC3-101P3A11 cells. […] Data in FIG. 30 indicate that some cross talk occurred between 101P3A11 and EGFR signaling pathways.
# (§1) Since adenylate cyclase activity modulates intracellular levels of cAMP and induce downstream signaling events such as activation of protein kinase A, calcium and ERK MAPK signaling (Pierce K. L., et al, Oncogene. 2001, 20: 1532), we determined that PTX, an inhibitor of adenylate cyclase signaling, prevents 101P3A11-mediated ERK phosphorylation along with inhibiting cAMP accumulation (FIG. 33 and FIG. 34). PC3-neo and PC3-101P3A11 cells were grown overnight in 0.1% FBS in media alone or in the presence of pertussis toxin (PTX). Cells were stimulated with 0.1% or 10% FBS (FIG. 33) or 10% FBS, EGF or GRP (FIG. 34). Cells were lysed and analyzed by Western blotting using anti-Phospho-ERK mAb. Expression of 101P3A11 mediated ERK phosphorylation by 10% FBS in PC3 cells, which was inhibited by PTX (FIG. 33 and FIG. 34).
# GPCR transmit their signal by activating trimeric G proteins. […]
# PC3-101P3A11 cells = assay: Proliferation of PC3-101P3A11 and PC3-neo cells; type: cell-based, human; settings: PC3-101P3A11 cells grown in 5% FBS
# Procedure: as §1
# GPCR transmit their signal by activating trimeric G proteins. Once GPCRs are activated, the associated Ga subunit binds GTP, dissociates from the receptor and participates in downstream signaling events (Schild, D., and Restrepo, D. Physiol Rev. 1998, 78:429-66). In order to determine that inhibition of Ga subunits has an effect on 101P3A11 mediated cell growth, the effect of two Ga inhibitors on the proliferation of 3T3-101P3A11 cells was investigated. Control 3T3 and 3T3-101P3A11 cells were grown in the presence or absence of suramin or its derivative NF 449 (Sigma). Cells were analyzed for proliferation 72 hours later (FIG. 35). The experiment was performed in triplicate. […] This response was 101P3A11 specific as suramin and NF449 had no effect on the proliferation of control 3T3 cells. Similarly, inhibition of G protein activation by suramin and NF449 in PC3 cells inhibits the proliferation of PC3-101P3A11 cells grown in 5% FBS (Figure M4). […] This ERK phosohorylation and activation was inhibited by suramin and NF449 in PC3-101P3A11 and 3T3-101P3A11 cells. ERK phosphorylation was inhibited in a dose dependent manner in PC3-101P3A11 cells treated with suramin. […]
# 3T3-101P3A11 cells = assay: Proliferation of 3T3 and 3T3-101P3A11 cells (Alamar blue); type: cell-based; settings: for effect on proliferation: control 3T3 cells
# 3T3-101P3A11 tumors = assay: Subcutaneous growth of 3T3-101P3A11 tumors in SCID mice; type: in vivo
# Procedure: (2) Regulated expression under control of an inducible vector system, such as ecdysone, tet, etc., can be used provided such promoters are compatible with the host cell systems. […] FIG. 21 compares subcutaneous growth of control 3T3-neo and 3T3-101P3A11 cells. One million cells stably expressing neo or 101P3A11 were injected subcutaneously in SCID mice along with matrigel. Tumor volume was evaluated by caliper measurements. […] Additionally, SCID mice were implanted with the same 3T3-101P3A11 cells orthotopically in the prostate to determine if 101P3A11 has an effect on local growth in the prostate or on the ability of the cells to metastasize, specifically to lungs or lymph nodes. […] In an analogous manner, cells can be implanted orthotopically in the bladder, colon or kidney. (Saffran, D., et al., PNAS 10:1073-1078; Fu, X., et al., Int. J. Cancer, 1991, 49: p. 938-939; Chang, S., et al., Anticancer Res., 1997, 17: p. 3239-3242; Peralta, E. A., et al., J. Urol., 1999, 162: p. 1806-1811). The tumor enhancing effect of 101P3A11 was also observed when 101P3A11 is expressed in prostate cancer cells such as PC3 and introduced into the prostate of SCID mice (Figure M11). A 2.5 fold increase in tumor weight is observed in tumors expressing 101P3A11 relative to control cells.
# Furthermore, these assays is useful to confirm the anti-101P3A11 inhibitory effects of candidate therapeutic compositions, such as for example, 101P3A11 antibodies or intrabodies, and 101P3A11 antisense molecules or ribozymes, or 101P3A11 directed small molecules. In FIG. 22, we depict the effect of a small molecule, pertussis toxin (PTX) on tumor formation by 3T3-101P3A11 cells. In this experiment, SCID mice were injected with 3T3-101P3A11 alone or in conjunction with PTX. Each mouse was given 5 doses of PTX at 3-4 days interval. Tumor volume was evaluated by caliper measurements. […] Similarly, treatment with the G-protein inhibitor suramin inhibits the growth of 3T3-101P3A11 tumors (Figure M13).
# LAPC-9 cells = assay: Androgen regulation in LAPC-9 cells (Northern blot); type: cell-based; settings: charcoal-stripped medium
# Procedure: In order to assay for androgen regulation of 101P3A11 expression, LAPC-9 cells were grown in charcoal-stripped medium and stimulated with the synthetic androgen mibolerone, for either 14 or 24 hours (FIG. 15A, FIG. 15B, and FIG. 15C). Northern blots with 10 μg of total RNA/lane were probed with the 101P3A11 sequences (FIG. 15A). A picture of the ethidium-bromide staining of the RNA gel is also presented (FIG. 15C). […] The experimental samples were confirmed by testing for the expression of the androgen-regulated prostate cancer gene PSA (FIG. 15B).
# [2] = 101P3A11 expressing 3T3 cells, Alamar blue after 72 hours
compound,measurement,setting,value
lipophosphatidic acid [LPA],ERK phosphorylation by GPCR ligands,[1]; PC3-101P3A11 cells,significant ERK phosphorylation
"[Na+].[Na+].[Na+].[O]=[V]([O-])([O-])[O-] [Na3VO4, sodium orthovanadate]",increase in ERK phosphorylation,[1]; PC3-101P3A11 cells,4.5 fold
same,increase in ERK phosphorylation,[1]; PC3-neo cells,two-fold increase
Cc1ccc(C(=O)Nc2ccc(S(=O)(=O)O)c3cc(S(=O)(=O)O)cc(S(=O)(=O)O)c23)cc1NC(=O)c1cccc(NC(=O)Nc2cccc(C(=O)Nc3cc(C(=O)Nc4ccc(S(=O)(=O)O)c5cc(S(=O)(=O)O)cc(S(=O)(=O)O)c45)ccc3C)c2)c1 [suramin],inhibition of ERK phosphorylation and activation,[1],inhibited
same,inhibition of proliferation,PC3-101P3A11 cells,inhibits
same,inhibition of proliferation,"3T3-101P3A11 cells; 3T3-101P3A11 cells, 72 hours",60%
same,inhibition of proliferation,3T3-101P3A11 cells; [2],inhibited
same,effect on proliferation,3T3-101P3A11 cells; 72 hours,no effect
same,inhibition of growth of 3T3-101P3A11 tumors,3T3-101P3A11 tumors,inhibits
O=C(Nc1cc(C(=O)Nc2ccc(S(=O)(=O)O)cc2S(=O)(=O)O)cc(C(=O)Nc2ccc(S(=O)(=O)O)cc2S(=O)(=O)O)c1)Nc1cc(C(=O)Nc2ccc(S(=O)(=O)O)cc2S(=O)(=O)O)cc(C(=O)Nc2ccc(S(=O)(=O)O)cc2S(=O)(=O)O)c1 [NF449],inhibition of ERK phosphorylation and activation,[1],inhibited
same,inhibition of proliferation,PC3-101P3A11 cells,inhibits
same,inhibition of proliferation,"3T3-101P3A11 cells; 3T3-101P3A11 cells, 72 hours",80%
same,inhibition of proliferation,3T3-101P3A11 cells; [2],inhibited
same,effect on proliferation,3T3-101P3A11 cells; 72 hours,no effect
COc1cc2ncnc(Nc3cccc(Br)c3)c2cc1OC [AG1517],inhibition of 101P3A11 mediated ERK phosphorylation,[1]; PC3-101P3A11 cells treated with 10% FBS,partially inhibits
same,inhibition of EGF-mediated ERK phosphorylation,"[1]; control and 101P3A11-expressing PC3 cells, EGF",completely inhibited; also recorded: inhibits
"CCCCC/C=C\C[C@@H](O)/C=C/C=C/C=C\[C@@H](O)CCCC(=O)O [LKB4, leukotriene]",ERK phosphorylation by GPCR ligands,[1]; PC3-101P3A11 cells,more modest level of ERK phosphorylation
"gastrin releasing peptide (VPLPAGGGTVLTKMYPRGNHWAVGHLM; ends and bridges not checked; UniProt P07492 24-50, looked up) [GRP, GPCR ligand]",ERK phosphorylation by GPCR ligands,[1]; PC3-101P3A11 cells,significant ERK phosphorylation
COc1cccc(-c2cc(=O)c3ccccc3o2)c1N [PD98059],inhibition of 101P3A11-mediated ERK phosphorylation,[1]; PC3-101P3A11 cells stimulated with FBS or GRP,inhibited
C[C@@H]1CC2=CC(=O)CC[C@@H]2[C@H]2CC[C@@]3(C)[C@@H](CC[C@]3(C)O)[C@@H]21 [mibolerone],expression of PSA,LAPC-9 cells; 14 and 24 hours,induced
same,expression of 101P3A11,LAPC-9 cells; 14 or 24 hours,not regulated
platelet activating factor [PAF],ERK phosphorylation by GPCR ligands,[1]; PC3-101P3A11 cells,significant ERK phosphorylation

# Reference: patent publication US8236510B2, “Protein showing enhanced expression in cancer cells” (Agensys, Inc., priority 1999, dated 2012)
